Laboratory results taken from PMC3694096, “Development of Novel In Vivo Chemical Probes to Address CNS Protein Kinase Involvement in Synaptic Dysfunction” (PLoS ONE, 2013).
Like-named read-outs stand apart in the source and are kept apart here.

Experiments:
Assay in all cases: Kinome profiler screen
Assay type in all cases: biochemical
[1] = target: T1, Flt4 (Homo sapiens, UniProt P35916); conditions: for activity at 20 µM: at 20,000 nM inhibitor, kinase activity remaining
T1 construct: purchased Millipore
T1 sequence (P35916 25-1363): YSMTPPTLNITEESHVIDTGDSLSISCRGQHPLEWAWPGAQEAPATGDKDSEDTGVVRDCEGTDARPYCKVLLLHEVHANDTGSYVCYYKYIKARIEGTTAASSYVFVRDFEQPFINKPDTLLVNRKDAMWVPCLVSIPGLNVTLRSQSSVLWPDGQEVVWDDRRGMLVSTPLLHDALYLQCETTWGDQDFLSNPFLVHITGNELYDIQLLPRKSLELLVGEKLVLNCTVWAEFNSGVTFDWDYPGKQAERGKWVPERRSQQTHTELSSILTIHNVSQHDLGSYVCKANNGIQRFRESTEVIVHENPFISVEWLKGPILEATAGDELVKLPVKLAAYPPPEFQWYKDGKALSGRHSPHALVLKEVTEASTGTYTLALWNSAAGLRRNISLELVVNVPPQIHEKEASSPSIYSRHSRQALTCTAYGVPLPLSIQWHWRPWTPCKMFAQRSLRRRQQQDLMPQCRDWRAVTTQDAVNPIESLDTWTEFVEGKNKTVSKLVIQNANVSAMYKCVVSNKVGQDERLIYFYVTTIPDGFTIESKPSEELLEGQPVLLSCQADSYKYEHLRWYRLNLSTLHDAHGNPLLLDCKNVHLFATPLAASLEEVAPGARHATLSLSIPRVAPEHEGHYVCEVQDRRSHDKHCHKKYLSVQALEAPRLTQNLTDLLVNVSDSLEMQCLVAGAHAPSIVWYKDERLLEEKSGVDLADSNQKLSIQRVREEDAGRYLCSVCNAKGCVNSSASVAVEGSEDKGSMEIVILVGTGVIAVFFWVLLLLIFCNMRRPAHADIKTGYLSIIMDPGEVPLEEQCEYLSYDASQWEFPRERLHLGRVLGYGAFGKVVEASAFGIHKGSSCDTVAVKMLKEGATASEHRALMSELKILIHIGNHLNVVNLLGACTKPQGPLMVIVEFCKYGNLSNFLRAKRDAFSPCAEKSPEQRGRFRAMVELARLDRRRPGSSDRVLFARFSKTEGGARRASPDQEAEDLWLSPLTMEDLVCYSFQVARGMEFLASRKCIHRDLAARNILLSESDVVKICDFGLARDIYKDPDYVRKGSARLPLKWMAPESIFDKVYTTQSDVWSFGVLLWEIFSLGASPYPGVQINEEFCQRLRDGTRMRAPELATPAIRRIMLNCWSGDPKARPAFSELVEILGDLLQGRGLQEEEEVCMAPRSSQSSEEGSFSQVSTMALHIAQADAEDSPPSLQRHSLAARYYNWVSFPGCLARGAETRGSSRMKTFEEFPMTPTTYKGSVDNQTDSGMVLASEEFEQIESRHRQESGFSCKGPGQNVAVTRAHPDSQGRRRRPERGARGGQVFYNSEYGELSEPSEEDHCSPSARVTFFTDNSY

[2] = target: T2, Tec(h) activated (Homo sapiens, UniProt P42680); conditions: at 20,000 nM inhibitor; kinase activity remaining
T2 construct: purchased Millipore KinaseProfiler

[3] = target: T3, Aurora-B (Homo sapiens, UniProt Q96GD4); conditions: at 20,000 nM inhibitor; kinase activity remaining
T3 construct: purchased Millipore KinaseProfiler

[4] = target: T4, PIP5K1α (Homo sapiens, UniProt Q99755); conditions: at 20,000 nM inhibitor; kinase activity remaining
T4 construct: purchased Millipore KinaseProfiler

[5] = target: T5, MST1 (Homo sapiens, UniProt Q13043); conditions: at 20,000 nM inhibitor; kinase activity remaining
T5 construct: purchased Millipore KinaseProfiler

[6] = target: T6, Itk (Homo sapiens, UniProt Q08881); conditions: at 20,000 nM inhibitor; kinase activity remaining
T6 construct: purchased Millipore KinaseProfiler

[7] = target: T7, CaMKIIβ (Homo sapiens, UniProt Q13554); conditions: at 20,000 nM inhibitor; kinase activity remaining
T7 construct: purchased Millipore KinaseProfiler
T7 sequence (Q13554 whole entry): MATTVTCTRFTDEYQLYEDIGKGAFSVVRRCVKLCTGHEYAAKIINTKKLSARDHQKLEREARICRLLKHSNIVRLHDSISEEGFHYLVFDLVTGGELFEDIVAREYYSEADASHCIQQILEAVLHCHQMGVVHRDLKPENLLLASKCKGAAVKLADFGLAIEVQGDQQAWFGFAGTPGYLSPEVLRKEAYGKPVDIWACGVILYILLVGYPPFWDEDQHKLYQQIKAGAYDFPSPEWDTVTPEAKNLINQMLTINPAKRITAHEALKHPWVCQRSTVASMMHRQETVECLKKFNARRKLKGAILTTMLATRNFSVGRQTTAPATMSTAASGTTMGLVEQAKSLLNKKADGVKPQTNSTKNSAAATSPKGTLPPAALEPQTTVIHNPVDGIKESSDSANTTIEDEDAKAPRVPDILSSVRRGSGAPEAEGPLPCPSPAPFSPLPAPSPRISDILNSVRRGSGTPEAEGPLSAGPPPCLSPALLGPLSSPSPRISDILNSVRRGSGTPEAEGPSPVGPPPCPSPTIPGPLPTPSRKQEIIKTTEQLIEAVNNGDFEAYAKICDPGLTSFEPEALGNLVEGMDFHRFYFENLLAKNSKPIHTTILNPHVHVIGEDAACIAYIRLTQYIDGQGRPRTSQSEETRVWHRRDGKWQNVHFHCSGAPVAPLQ

[8] = target: T8, Bmx (Homo sapiens, UniProt P51813); conditions: at 20,000 nM inhibitor; kinase activity remaining
T8 construct: purchased Millipore KinaseProfiler

[9] = target: T9, GRK6 (Homo sapiens, UniProt P43250)
T9 construct: purchased Millipore KinaseProfiler

[10] = target: T10, PKCμ (Homo sapiens, UniProt Q15139); conditions: at 20,000 nM inhibitor; kinase activity remaining
T10 construct: purchased Millipore KinaseProfiler

[11] = target: T11, JAK2 (Homo sapiens, UniProt O60674); conditions: at 20,000 nM inhibitor; kinase activity remaining
T11 construct: purchased Millipore KinaseProfiler

[12] = target: T12, EphA4 (Homo sapiens, UniProt P54764); conditions: at 20,000 nM inhibitor; kinase activity remaining
T12 construct: purchased Millipore KinaseProfiler

[13] = target: T13, Abl(T315I) (Homo sapiens, UniProt P00519, T315I); conditions: at 20,000 nM inhibitor; kinase activity remaining
T13 construct: purchased Millipore KinaseProfiler

[14] = target: T14, ROCK-I (Homo sapiens, UniProt Q13464); conditions: at 20,000 nM inhibitor; kinase activity remaining
T14 construct: purchased Millipore KinaseProfiler

[15] = target: T15, PI3 Kinase (p110 β/p85α)(m) (Mus musculus, UniProt Q8BTI9); conditions: at 20,000 nM inhibitor; kinase activity remaining
T15 construct: purchased Millipore KinaseProfiler

[16] = target: T16, CHK1 (Homo sapiens, UniProt O14757); conditions: at 20,000 nM inhibitor; kinase activity remaining
T16 construct: purchased Millipore KinaseProfiler

[17] = target: T17, Lyn (Homo sapiens, UniProt P07948); conditions: at 20,000 nM inhibitor; kinase activity remaining
T17 construct: purchased Millipore KinaseProfiler

[18] = target: T18, EphB1 (Homo sapiens, UniProt P54762)
T18 construct: purchased Millipore KinaseProfiler

[19] = target: T19, Rsk1 (Homo sapiens, UniProt Q15418); conditions: at 20,000 nM inhibitor; kinase activity remaining
T19 construct: purchased Millipore KinaseProfiler

[20] = target: T20, CK1γ2 (Homo sapiens, UniProt P78368); conditions: at 20,000 nM inhibitor; kinase activity remaining
T20 construct: purchased Millipore KinaseProfiler
T20 sequence (P78368 whole entry): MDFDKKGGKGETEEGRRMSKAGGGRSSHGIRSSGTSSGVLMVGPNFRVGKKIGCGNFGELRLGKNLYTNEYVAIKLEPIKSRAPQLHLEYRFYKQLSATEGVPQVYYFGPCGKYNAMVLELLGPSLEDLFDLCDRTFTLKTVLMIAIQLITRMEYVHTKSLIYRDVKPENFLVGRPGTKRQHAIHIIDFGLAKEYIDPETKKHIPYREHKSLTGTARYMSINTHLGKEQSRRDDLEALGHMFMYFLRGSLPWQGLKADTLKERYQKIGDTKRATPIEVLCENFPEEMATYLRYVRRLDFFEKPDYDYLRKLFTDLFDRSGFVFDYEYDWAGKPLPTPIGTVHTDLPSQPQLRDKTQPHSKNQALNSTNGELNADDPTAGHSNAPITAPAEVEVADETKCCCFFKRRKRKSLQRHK

[21] = target: T21, MKK4(m) (Mus musculus, UniProt P47809); conditions: at 20,000 nM inhibitor; kinase activity remaining
T21 construct: purchased Millipore KinaseProfiler

[22] = target: T22, ULK2 (Homo sapiens, UniProt Q8IYT8); conditions: at 20,000 nM inhibitor; kinase activity remaining
T22 construct: purchased Millipore KinaseProfiler

[23] = target: T23, Pim-3 (Homo sapiens, UniProt Q86V86); conditions: at 20,000 nM inhibitor; kinase activity remaining
T23 construct: purchased Millipore KinaseProfiler

[24] = target: T24, ALK4 (Homo sapiens, UniProt P36896); conditions: at 20,000 nM inhibitor; kinase activity remaining
T24 construct: purchased Millipore KinaseProfiler
T24 sequence (P36896 24-505): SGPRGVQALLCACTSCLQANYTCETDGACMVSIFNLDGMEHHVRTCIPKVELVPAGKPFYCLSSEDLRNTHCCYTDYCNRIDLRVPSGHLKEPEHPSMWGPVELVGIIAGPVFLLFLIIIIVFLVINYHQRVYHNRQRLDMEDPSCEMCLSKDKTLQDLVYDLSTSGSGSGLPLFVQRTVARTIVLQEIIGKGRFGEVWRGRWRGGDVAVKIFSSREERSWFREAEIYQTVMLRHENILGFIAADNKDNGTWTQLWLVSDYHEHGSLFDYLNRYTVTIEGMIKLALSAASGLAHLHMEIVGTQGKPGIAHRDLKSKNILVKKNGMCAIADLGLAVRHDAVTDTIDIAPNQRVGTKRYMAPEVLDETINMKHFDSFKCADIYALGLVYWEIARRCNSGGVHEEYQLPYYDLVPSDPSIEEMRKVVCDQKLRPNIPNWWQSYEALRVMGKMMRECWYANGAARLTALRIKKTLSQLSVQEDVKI

[25] = target: T25, Yes (Homo sapiens, UniProt P07947); conditions: at 20,000 nM inhibitor; kinase activity remaining
T25 construct: purchased Millipore KinaseProfiler
T25 sequence (P07947 whole entry): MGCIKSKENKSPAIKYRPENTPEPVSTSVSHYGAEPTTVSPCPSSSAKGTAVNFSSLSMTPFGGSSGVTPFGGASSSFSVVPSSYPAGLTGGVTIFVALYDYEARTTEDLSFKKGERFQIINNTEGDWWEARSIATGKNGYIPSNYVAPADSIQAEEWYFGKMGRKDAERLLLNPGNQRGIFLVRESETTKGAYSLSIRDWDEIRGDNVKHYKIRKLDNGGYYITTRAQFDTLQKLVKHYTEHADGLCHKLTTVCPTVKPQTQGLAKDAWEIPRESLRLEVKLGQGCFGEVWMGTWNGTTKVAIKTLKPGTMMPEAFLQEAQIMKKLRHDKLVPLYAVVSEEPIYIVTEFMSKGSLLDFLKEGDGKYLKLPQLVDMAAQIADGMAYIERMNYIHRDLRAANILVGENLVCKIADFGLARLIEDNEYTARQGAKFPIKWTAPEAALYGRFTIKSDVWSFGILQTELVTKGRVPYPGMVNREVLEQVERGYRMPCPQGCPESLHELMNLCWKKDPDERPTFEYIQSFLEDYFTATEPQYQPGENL

[26] = target: T26, CK1γ1 (Homo sapiens, UniProt Q9HCP0); conditions: at 20,000 nM inhibitor; kinase activity remaining
T26 construct: purchased Millipore KinaseProfiler

[27] = target: T27, Mer (Homo sapiens, UniProt Q12866); conditions: at 20,000 nM inhibitor; kinase activity remaining
T27 construct: purchased Millipore KinaseProfiler

[28] = target: T28, ULK3 (Homo sapiens, UniProt Q6PHR2); conditions: at 20,000 nM inhibitor; kinase activity remaining
T28 construct: purchased Millipore KinaseProfiler

[29] = target: T29, CDK6/cyclinD3 (Homo sapiens, UniProt Q00534); conditions: at 20,000 nM inhibitor; kinase activity remaining
T29 construct: purchased Millipore KinaseProfiler

[30] = target: T30, IR, activated (Homo sapiens, UniProt P06213); conditions: at 20,000 nM inhibitor; kinase activity remaining
T30 construct: purchased Millipore KinaseProfiler

[31] = target: T31, DRAK1 (Homo sapiens, UniProt Q9UEE5); conditions: at 20,000 nM inhibitor; kinase activity remaining
T31 construct: purchased Millipore KinaseProfiler
T31 sequence (Q9UEE5 whole entry): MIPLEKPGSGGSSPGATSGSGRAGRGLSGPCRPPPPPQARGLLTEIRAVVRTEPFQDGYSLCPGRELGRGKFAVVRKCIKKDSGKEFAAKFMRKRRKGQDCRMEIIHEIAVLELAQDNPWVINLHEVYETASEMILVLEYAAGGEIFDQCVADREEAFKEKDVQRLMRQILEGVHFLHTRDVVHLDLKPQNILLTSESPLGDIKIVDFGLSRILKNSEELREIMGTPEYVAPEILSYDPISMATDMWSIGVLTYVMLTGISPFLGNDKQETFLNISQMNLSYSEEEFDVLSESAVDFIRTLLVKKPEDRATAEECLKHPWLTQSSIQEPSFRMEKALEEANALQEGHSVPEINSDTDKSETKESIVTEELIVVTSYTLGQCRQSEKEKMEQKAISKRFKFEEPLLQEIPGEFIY

[32] = target: T32, CSK (Homo sapiens, UniProt P41240); conditions: at 20,000 nM inhibitor; kinase activity remaining
T32 construct: purchased Millipore KinaseProfiler

[33] = target: T33, Tie2 (Homo sapiens, UniProt Q02763); conditions: at 20,000 nM inhibitor; kinase activity remaining
T33 construct: purchased Millipore KinaseProfiler

[34] = target: T34, PAK4 (Homo sapiens, UniProt O96013); conditions: at 20,000 nM inhibitor; kinase activity remaining
T34 construct: purchased Millipore KinaseProfiler

[35] = target: T35, PKBγ (Homo sapiens, UniProt Q9Y243); conditions: at 20,000 nM inhibitor; kinase activity remaining
T35 construct: purchased Millipore KinaseProfiler
T35 sequence (Q9Y243 whole entry): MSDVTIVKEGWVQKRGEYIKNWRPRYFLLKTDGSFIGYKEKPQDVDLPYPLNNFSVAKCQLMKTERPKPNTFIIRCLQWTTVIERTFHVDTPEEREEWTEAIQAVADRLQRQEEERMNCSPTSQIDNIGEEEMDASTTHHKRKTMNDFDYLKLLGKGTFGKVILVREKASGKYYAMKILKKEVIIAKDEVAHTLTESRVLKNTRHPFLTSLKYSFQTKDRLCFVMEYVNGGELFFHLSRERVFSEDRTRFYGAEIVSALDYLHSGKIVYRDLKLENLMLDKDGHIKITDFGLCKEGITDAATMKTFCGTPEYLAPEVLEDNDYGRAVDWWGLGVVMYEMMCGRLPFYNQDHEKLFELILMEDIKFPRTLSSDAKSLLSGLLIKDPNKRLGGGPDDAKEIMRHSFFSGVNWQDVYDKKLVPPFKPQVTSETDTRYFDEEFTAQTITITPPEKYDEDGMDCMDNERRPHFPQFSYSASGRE

[36] = target: T36, SGK2 (Homo sapiens, UniProt Q9HBY8); conditions: at 20,000 nM inhibitor; kinase activity remaining
T36 construct: purchased Millipore KinaseProfiler

[37] = target: T37, IRAK4 (Homo sapiens, UniProt Q9NWZ3); conditions: at 20,000 nM inhibitor; kinase activity remaining
T37 construct: purchased Millipore KinaseProfiler
T37 sequence (Q9NWZ3 whole entry): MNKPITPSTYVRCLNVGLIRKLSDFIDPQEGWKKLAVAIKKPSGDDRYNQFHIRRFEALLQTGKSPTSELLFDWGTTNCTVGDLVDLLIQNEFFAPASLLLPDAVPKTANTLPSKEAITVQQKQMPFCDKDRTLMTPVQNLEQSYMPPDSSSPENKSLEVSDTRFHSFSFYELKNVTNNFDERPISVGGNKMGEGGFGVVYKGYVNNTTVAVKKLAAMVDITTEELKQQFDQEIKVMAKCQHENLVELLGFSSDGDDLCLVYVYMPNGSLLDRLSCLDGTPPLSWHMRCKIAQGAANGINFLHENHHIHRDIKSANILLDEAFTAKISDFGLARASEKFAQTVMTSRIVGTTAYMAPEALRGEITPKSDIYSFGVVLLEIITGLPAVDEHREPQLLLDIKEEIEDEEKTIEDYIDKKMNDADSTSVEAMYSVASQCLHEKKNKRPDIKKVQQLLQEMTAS

[38] = target: T38, CK1δ (Homo sapiens, UniProt P48730)
T38 construct: purchased Millipore

[39] = target: T39, AMPKα1 (Homo sapiens, UniProt Q13131); conditions: at 20,000 nM inhibitor; kinase activity remaining
T39 construct: purchased Millipore KinaseProfiler

[40] = target: T40, ASK1 (Homo sapiens, UniProt Q99683); conditions: at 20,000 nM inhibitor; kinase activity remaining
T40 construct: purchased Millipore KinaseProfiler

[41] = target: T41, Met(Y1248C) (Homo sapiens, UniProt P08581, Y1230C); conditions: at 20,000 nM inhibitor; kinase activity remaining
T41 construct: purchased Millipore KinaseProfiler

[42] = target: T42, PDGFRα (Homo sapiens, UniProt P16234); conditions: at 20,000 nM inhibitor; kinase activity remaining
T42 construct: purchased Millipore KinaseProfiler

[43] = target: T43, EphB3 (Homo sapiens, UniProt P54753); conditions: at 20,000 nM inhibitor; kinase activity remaining
T43 construct: purchased Millipore KinaseProfiler

[44] = target: T44, Fer (Homo sapiens, UniProt P16591); conditions: at 20,000 nM inhibitor; kinase activity remaining
T44 construct: purchased Millipore KinaseProfiler

[45] = at 20,000 nM inhibitor, kinase activity remaining, read-out: % Activity

CN(C)c1cc(-c2ccncc2)c(-c2cccc3ccccc23)nn1 [MW181, N,N-dimethyl-6-(naphthalen-1-yl)-5-(pyridin-4-yl)pyridazin-3-amine]
activity at 20 µM [1]: 98%
activity at 20 µM [2]: 98%
activity at 20 µM [3]: 114%
activity at 20 µM [4]: 102%
activity at 20 µM [5]: 94%
activity at 20 µM [6]: 91%
activity at 20 µM [7]: 108%
activity at 20 µM [8]: 108%
activity at 20 µM [9, 45]: 105%
activity at 20 µM [10]: 70%
activity at 20 µM [11]: 111%
activity at 20 µM [12]: 110%
activity at 20 µM [13]: 107%
activity at 20 µM [14]: 97%
activity at 20 µM [15]: 101%
activity at 20 µM [16]: 115%
activity at 20 µM [17]: 93%
activity at 20 µM [18, 45]: 100%
activity at 20 µM [19]: 98%
activity at 20 µM [20]: 96%
activity at 20 µM [21]: 91%
activity at 20 µM [22]: 101%
activity at 20 µM [23]: 106%
activity at 20 µM [24]: 101%
activity at 20 µM [25]: 87%
activity at 20 µM [26]: 101%
activity at 20 µM [27]: 100%
activity at 20 µM [28]: 106%
activity at 20 µM [29]: 103%
activity at 20 µM [30]: 100%
activity at 20 µM [31]: 113%
activity at 20 µM [32]: 111%
activity at 20 µM [33]: 99%
activity at 20 µM [34]: 109%
activity at 20 µM [35]: 100%
activity at 20 µM [36]: 102%
activity at 20 µM [37]: 100%
activity at 20 µM [38]: 89%
activity at 20 µM [39]: 105%
activity at 20 µM [40]: 109%
activity at 20 µM [41]: 100%
activity at 20 µM [42]: 103%
activity at 20 µM [43]: 102%
activity at 20 µM [44]: 92%

CN(C)c1cc(-c2ccncc2)c(-c2ccc3ccccc3c2)nn1 [MW108, N, N-dimethyl-6-(naphthalen-2-yl)-5-(pyridin-4-yl)pyridazin-3-amine]
IC50 [1]: 4.91 µM
activity at 20 µM [1]: 11%
activity at 20 µM [2]: 89%
activity at 20 µM [3]: 134%
activity at 20 µM [4]: 104%
activity at 20 µM [5]: 105%
activity at 20 µM [6]: 90%
activity at 20 µM [7]: 96%
activity at 20 µM [8]: 87%
activity at 20 µM [9]: 98%
activity at 20 µM [10]: 70%
activity at 20 µM [11]: 98%
activity at 20 µM [12]: 97%
activity at 20 µM [13]: 91%
activity at 20 µM [14]: 89%
activity at 20 µM [15]: 99%
activity at 20 µM [16]: 94%
activity at 20 µM [17]: 100%
activity at 20 µM [18]: 92%
activity at 20 µM [19]: 93%
activity at 20 µM [20]: 91%
activity at 20 µM [21]: 108%
activity at 20 µM [22]: 100%
activity at 20 µM [23]: 105%
activity at 20 µM [24]: 95%
activity at 20 µM [25]: 63%
activity at 20 µM [26]: 101%
activity at 20 µM [27]: 98%
activity at 20 µM [28]: 95%
activity at 20 µM [29]: 85%
activity at 20 µM [30]: 103%
activity at 20 µM [31]: 86%
activity at 20 µM [32]: 93%
activity at 20 µM [33]: 81%
activity at 20 µM [34]: 104%
activity at 20 µM [35]: 92%
activity at 20 µM [36]: 92%
activity at 20 µM [37]: 91%
activity at 20 µM [38]: 33%
activity at 20 µM [39]: 101%
activity at 20 µM [40]: 103%
activity at 20 µM [41]: 84%
activity at 20 µM [42]: 106%
activity at 20 µM [43]: 96%
activity at 20 µM [44]: 97%
